These results are taken from patent US20050277575A1, “Therapeutic compositions and methods for treating diseases that involve angiogenesis” (priority 2004, published 2005).

The test has as its system Human cerebral endothelial cells (HCEC). As to the kind of experiment: Capillary tube formation in Matrigel, S100A4 induced angiogenesis. Type of test: cell-based. As to conditions: primary HCEC grown in Matrigel. The source says:
Human cerebral endothelial cells (HCEC) were isolated using previously described protocols (Stanimirovic, D., P. Morley, et al. (1996). “Angiotensin II-induced fluid phase endocytosis in human cerebromicrovascular endothelial cells is regulated by the inositol-phosphate signaling pathway.” J Cell Physiol 169(3): 455-67.). Purity of HCEC cultures generated by these procedures was routinely assessed by the immunocytochemical staining for Factor VIII-related antigen and the lack of staining for smooth muscle β-actin, and is estimated to be >95%. The morphological, phenotypic, biochemical and functional characteristics of these HCEC cultures have been described in detail previously (Muruganandam, A., L. M Herx, et al. (1997). “Development of immortalized human cerebromicrovascular endothelial cell line as an in vitro model of the human blood-brain barrier.” Faseb J 11(13): 1187-97).
HCEC were seeded (8×10^4 cells) on a semi-solid basement membrane matrix, Matrigel™ (Collaborative Biomedical Products, Bedford, Mass.)-coated 24-well plates and exposed to serum-free media containing various treatments. […] Confocal apertures for each recorded wavelength were adjusted to a full width half maximum of 20 μm. […] Eight to 32 individual optical sections were collected and the average was calculated. […]

As to “S100A4: recombinant human S100A4 protein cloned from human placenta total RNA, Ca-binding protein of S100 family”, the “concentration of S100A4 from which angiogenesis is induced” value was at least 10 nM.
